Test results as given in patent US9204653B2, “5-fluoro pyrimidine derivatives” (DOW AGROSCIENCES LLC, priority 2008, dated 2015).
Where two headings read alike, the source gives them in different places.

Test system: Mycosphaerella graminicola; Anamorph: Septoria tritici; Bayer Code SEPTTR
Assay: Leaf blotch of wheat, foliar fungicide treatment, one day protectant (1DP) or three day curative (3DC)
Assay type: in vivo, Septoria tritici on wheat plants (variety Yuma)
Details: Zymoseptoria tritici
[1] = 24 h, one day protectant (1DP), 25 ppm, rating of percent disease control, read-out: SETTTR 1DP 25 ppm
[2] = 24 h, one day protectant (1DP), rating of percent disease control, read-out: SEPTTR 1DP 100 ppm
[3] = 72 h, three day curative (3DC), 25 ppm, rating of percent disease control, read-out: SEPTTR 3DC 25 ppm
[4] = 72 h, three day curative (3DC), rating of percent disease control, read-out: SEPTTR 3DC 100 ppm
[5] = 24 h, one day protectant, 25 ppm, rating of percent disease control, read-out: SETTTR 1DP 25 ppm
[6] = 24 h, one day protectant, rating of percent disease control, read-out: SEPTTR 1DP 100 ppm
[7] = 72 h, three day curative, 25 ppm, rating of percent disease control, read-out: SEPTTR 3DC 25 ppm
[8] = 72 h, three day curative, rating of percent disease control, read-out: SEPTTR 3DC 100 ppm
[9] = 24 h, one day protectant (1DP), 25 ppm, percent disease control rating, read-out: SETTTR 1DP 25 ppm
[10] = 24 h, one day protectant (1DP), percent disease control rating, read-out: SEPTTR 1DP 100 ppm
[11] = 72 h, three day curative (3DC), 25 ppm, percent disease control rating, read-out: SEPTTR 3DC 25 ppm
[12] = 72 h, three day curative (3DC), percent disease control rating, read-out: SEPTTR 3DC 100 ppm
[13] = 24 h, one day protectant (1DP), 25 ppm (first 1DP column), percent control rating, read-out: SETTTR 1DP 25 ppm
[14] = 24 h, one day protectant (1DP), 25 ppm as printed (second 1DP column), percent control rating, read-out: SETTTR 1DP 25 ppm
[15] = 72 h, three day curative (3DC), 25 ppm, percent control rating, read-out: SEPTTR 3DC 25 ppm
[16] = 72 h, three day curative (3DC), percent control rating, read-out: SEPTTR 3DC 100 ppm
[17] = 24 h, % disease control rating, one day protectant

Structure (SMILES): O=[N+]([O-])c1ccccc1NNc1nc(OCc2ccc(Cl)c(Cl)c2)ncc1F [Compound 283]
- pest or weed control at 25 ppm [1]: 51 to 75%
- pest or weed control at 100 ppm [2]: 76 to 100%
- pest or weed control at 25 ppm [3]: 0 to 25%
- pest or weed control at 100 ppm [4]: 26 to 50%

Structure (SMILES): Cc1ccccc1C(C)Oc1ncc(F)c(/N=C/N(C)C)n1 (stereo not shown) [Compound 643]
- pest or weed control at 25 ppm [5]: 76 to 100%
- pest or weed control at 100 ppm [6]: 76 to 100%
- pest or weed control at 25 ppm [7]: 76 to 100%
- pest or weed control at 100 ppm [8]: 76 to 100%

Structure (SMILES): Cc1ccc(C(C)Oc2ncc(F)c(N)n2)cc1C (stereo not shown) [Compound 145]
- pest or weed control at 25 ppm [9]: 76 to 100%
- pest or weed control at 100 ppm [10]: 76 to 100%
- pest or weed control at 25 ppm [11]: 76 to 100%
- pest or weed control at 100 ppm [12]: 76 to 100%

Structure (SMILES): Fc1ccc(COc2ncc(F)c(/N=N/c3ccccc3Cl)n2)cc1 [Compound 1014]
- pest or weed control at 25 ppm [13]: 0 to 25%
- pest or weed control at 25 ppm [14]: 0 to 25%
- pest or weed control at 25 ppm [15]: 0 to 25%
- pest or weed control at 100 ppm [16]: 76 to 100%

Structure (SMILES): Nc1nc(OCc2cnc(Cl)s2)ncc1F [Compound 429]
- pest or weed control at 25 ppm [1]: 76 to 100%
- pest or weed control at 100 ppm [2]: 76 to 100%
- pest or weed control at 25 ppm [3]: 76 to 100%
- pest or weed control at 100 ppm [4]: 76 to 100%

Structure (SMILES): C=CCOc1ncc(F)c(NO[Si](C)(C)C(C)(C)C)n1 [Compound 1075]
- pest or weed control at 25 ppm [13]: 0 to 25%
- pest or weed control at 25 ppm [14]: 0 to 25%
- pest or weed control at 25 ppm [15]: 0 to 25%
- pest or weed control at 100 ppm [16]: 0 to 25%

Structure (SMILES): CC(C)N(O)c1nc(OCc2ccc(F)cc2)ncc1F [Compound 147]
- pest or weed control at 25 ppm [9]: 0 to 25%
- pest or weed control at 100 ppm [10]: 51 to 75%
- pest or weed control at 25 ppm [11]: 26 to 50%
- pest or weed control at 100 ppm [12]: 26 to 50%

Structure (SMILES): C=CCOc1ncc(F)c(NN)n1 [Compound 1059]
- pest or weed control at 25 ppm [13]: 0 to 25%
- pest or weed control at 25 ppm [14]: 0 to 25%
- pest or weed control at 25 ppm [15]: 0 to 25%
- pest or weed control at 100 ppm [16]: 26 to 50%

Structure (SMILES): COc1ccc(Oc2ncc(F)c(NC(=O)Nc3ccsc3)n2)cc1 [Compound 737]
- pest or weed control at 25 ppm [1]: 0 to 25%
- pest or weed control at 100 ppm [2]: 0 to 25%
- pest or weed control at 25 ppm [3]: 0 to 25%
- pest or weed control at 100 ppm [4]: 0 to 25%

Structure (SMILES): Cc1nn(C)c2sc(COc3ncc(F)c(N)n3)cc12 [Compound 132]
- pest or weed control at 25 ppm [9]: 76 to 100%
- pest or weed control at 100 ppm [10]: 76 to 100%
- pest or weed control at 25 ppm [11]: 76 to 100%
- pest or weed control at 100 ppm [12]: 76 to 100%

Structure (SMILES): Fc1cnc(OCc2c(Cl)cccc2Cl)nc1NC1CC1 [Compound 877]
- pest or weed control at 200 ppm [17]: 76 to 100%

Structure (SMILES): C=CCOc1ncc(F)c(NOCc2ccccc2)n1 [Compound 1087]
- pest or weed control at 25 ppm [13]: 0 to 25%
- pest or weed control at 25 ppm [14]: 0 to 25%
- pest or weed control at 25 ppm [15]: 0 to 25%
- pest or weed control at 100 ppm [16]: 0 to 25%

Structure (SMILES): COc1ccccc1CN(C)c1nc(O)ncc1F [Compound 1070]
- pest or weed control at 25 ppm [13]: 26 to 50%
- pest or weed control at 25 ppm [14]: 0 to 25%
- pest or weed control at 25 ppm [15]: 0 to 25%
- pest or weed control at 100 ppm [16]: 0 to 25%

Structure (SMILES): CCc1ccc(COc2ncc(F)c(N)n2)cc1 [Compound 171]
- pest or weed control at 25 ppm [9]: 76 to 100%
- pest or weed control at 100 ppm [10]: 76 to 100%
- pest or weed control at 25 ppm [11]: 76 to 100%
- pest or weed control at 100 ppm [12]: 76 to 100%

Structure (SMILES): O=C(Nc1nc(OCc2ccc(F)cc2)ncc1F)OCc1ccccc1 [Compound 220]
- pest or weed control at 25 ppm [1]: 76 to 100%
- pest or weed control at 100 ppm [2]: 76 to 100%
- pest or weed control at 25 ppm [3]: 76 to 100%
- pest or weed control at 100 ppm [4]: 76 to 100%

Structure (SMILES): Nc1nc(OCCc2ccccc2Cl)ncc1F [Compound 240]
- pest or weed control at 25 ppm [1]: 0 to 25%
- pest or weed control at 100 ppm [2]: 26 to 50%
- pest or weed control at 25 ppm [3]: 0 to 25%
- pest or weed control at 100 ppm [4]: 0 to 25%

Structure (SMILES): Fc1cnc(OCc2ccccc2)nc1/N=N/c1ccccc1 [Compound 991]
- pest or weed control at 25 ppm [13]: 0 to 25%
- pest or weed control at 25 ppm [14]: 0 to 25%
- pest or weed control at 25 ppm [15]: 0 to 25%
- pest or weed control at 100 ppm [16]: 0 to 25%

Structure (SMILES): Cc1ccc(COc2ncc(F)c(/N=N/c3cc(C)ccc3C)n2)cc1 [Compound 1089]
- pest or weed control at 25 ppm [13]: 0 to 25%
- pest or weed control at 25 ppm [14]: 0 to 25%
- pest or weed control at 25 ppm [15]: 26 to 50%
- pest or weed control at 100 ppm [16]: 26 to 50%

Structure (SMILES): Fc1cnc(OCc2ccco2)nc1NCCc1ccccc1 [Compound 827]
- pest or weed control at 50 ppm (24 h, % disease control rating, one day protectant, 50 ppm): 0 to 25%
- pest or weed control at 200 ppm [17]: 26 to 50%

Structure (SMILES): CCCNC(=S)Nc1nc(OCc2cccc(F)c2)ncc1F [Compound 568]
- pest or weed control at 25 ppm [5]: 51 to 75%
- pest or weed control at 100 ppm [6]: 76 to 100%
- pest or weed control at 25 ppm [7]: 76 to 100%
- pest or weed control at 100 ppm [8]: 76 to 100%

Structure (SMILES): COc1ncc(F)c(N(C)O)n1 [Compound 1066]
- pest or weed control at 25 ppm [13]: 0 to 25%
- pest or weed control at 25 ppm [14]: 0 to 25%
- pest or weed control at 25 ppm [15]: 0 to 25%
- pest or weed control at 100 ppm [16]: 0 to 25%
